Target: CBP (Homo sapiens (Human), UniProt Q92793)
Experiment: HTRF biochemical assay for CBP activity (TR-FRET, bromodomain)
Type: binding
Conditions: geometric mean, 10-point 3-fold dilution 33 μM to 1.7 nM, read-out: BROMO IC50 TRF TB CBP (μM gmean)
In short: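 IC50 derives from a 4-parameter logistic fit of % inhibition, calculated from the 520/490 nm TR-FRET ratio against DMSO and no-enzyme controls. Final compound levels spanned 33 μM to 1.7 nM (10 points, 3-fold), with CBP and peptide ligand in Hepes pH 7.5/GSH/BGG/BSA/Triton buffer, incubated at room temperature for varying times.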

Sequence of CBP (Q92793 1085-1192): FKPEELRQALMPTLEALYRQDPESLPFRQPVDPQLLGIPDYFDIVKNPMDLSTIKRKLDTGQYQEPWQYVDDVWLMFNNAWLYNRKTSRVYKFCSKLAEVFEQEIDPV

Row | Compound | IC50
1 | COC(=O)N1CCc2ccc3c(nc([C@H]4CC[C@H](C(=O)O)CC4)n3[C@@H](C)C[C@]3(C)CC[C@@H](OC)CC3)c2C1 [Compound 249] | 0.01 to 0.1 µM
2 | COC(=O)N1CCc2ccc3c(nc([C@H]4CC[C@@H](C(=O)O)CC4)n3CCn3cc(Cl)cn3)c2C1 [Compound 291] | 0.1 to 1 µM
3 | COC(=O)N1CCc2ccc3c(nc(C4CCCCC4)n3CC(C(=O)O)C3CCCCC3)c2C1 (stereo not shown) [Compound 126] | 0.001 to 0.01 µM
4 | COC(=O)N1CCc2ccc3c(nc(C4CCCCC4)n3[C@H](C)C[C@@H]3CCCC[C@H]3C(=O)O)c2C1 [Compound 251] | 0.01 to 0.1 µM
5 | COC(=O)N1CCc2ccc3c(nc(N4CCN(C(=O)C5COC5)CC4)n3[C@@H](C)Cc3ccccc3)c2C1 [Compound 337] | 0.1 to 1 µM
6 | COC(=O)N1CCc2ccc3c(nc([C@H]4CC[C@H](C(=O)O)CC4)n3[C@@H](C)C[C@H]3CC[C@@H](OC)CC3)c2C1 [Compound 220] | 0.01 to 0.1 µM
7 | COC(=O)N1CCc2ccc3c(nc([C@H]4CC[C@H](C(=O)O)CC4)n3[C@@H](C)CC3CCOCC3)c2C1 [Compound 188] | 0.01 to 0.1 µM
8 | COC(=O)N1CCc2ccc3c(nc([C@H]4CC[C@H](C(=O)O)CC4)n3[C@H](C)Cc3ccccc3F)c2C1 [Compound 51] | 0.001 to 0.01 µM
9 | COC(=O)N1CCc2ccc3c(nc([C@H]4CCC[C@H](C(=O)O)C4)n3[C@@H](C)Cc3ccccc3C)c2C1 (single isomer, unassigned) [Compound 18] | 0.001 to 0.01 µM
10 | COC(=O)N1CCc2ccc3c(nc(C4CCCCC4)n3C[C@@H]3CCCC[C@H]3C(=O)O)c2C1 [Compound 227] | 0.01 to 0.1 µM
11 | COC(=O)N1CCc2ccc3c(nc([C@H]4CCC[C@H](C(=O)O)C4)n3[C@H](C)Cc3ccccc3)c2C1 [Compound 344] | 0.1 to 1 µM
12 | COC(=O)N1CCc2ccc3c(nc(C4CCCCC4)n3[C@H](CC(=O)O)c3ccccc3)c2C1 [Compound 180] | 0.01 to 0.1 µM
13 | COC(=O)N1CCc2ccc3c(nc(C4CCCCC4)n3C[C@H](C(=O)O)c3cccc(F)c3F)c2C1 (single isomer, unassigned) [Compound 26] | 0.001 to 0.01 µM
14 | COC(=O)N1CCc2c([C@@H]3CCOC3)cc3c(nc([C@H]4CC[C@H](C(=O)O)CC4)n3[C@H](C)Cc3ccccc3)c2C1 [Compound 44] | 0.001 to 0.01 µM
15 | COC(=O)N1CCc2ccc3c(nc([C@H]4CCC[C@H](C(=O)O)C4)n3[C@H](C)Cc3ccccc3Cl)c2C1 (single isomer, unassigned) [Compound 176] | 0.01 to 0.1 µM
16 | COC(=O)N1CCc2ccc3c(nc([C@H]4CC[C@H](C(=O)O)CC4)n3[C@@H](C)Cc3ccccc3F)c2C1 [Compound 314] | 0.1 to 1 µM
17 | COC(=O)N1CCc2ccc3c(nc([C@@H]4CCC[C@@H](C(=O)O)C4)n3Cc3cccc(OC)n3)c2C1 [Compound 272] | 0.01 to 0.1 µM
18 | COC(=O)N1CCc2ccc3c(nc([C@H]4CC[C@H](OC)CC4)n3C[C@H](C(=O)O)c3ccccc3)c2C1 [Compound 1] | 0.001 to 0.01 µM
19 | COC(=O)N1CCc2ccc3c(nc(C4CCN(S(C)(=O)=O)CC4)n3[C@@H](C)Cc3ccccc3)c2C1 [Compound 139] | 0.001 to 0.01 µM
20 | COC(=O)N1CCc2ccc3c(nc([C@H]4CC[C@H](C(=O)O)CC4)n3C[C@H](OC)c3ccccc3)c2C1 [Compound 191] | 0.01 to 0.1 µM
21 | COC(=O)N1CCc2ccc3c(nc([C@H]4CC[C@](C)(C(=O)O)CC4)n3[C@@H](CO)Cc3ccccc3)c2C1 [Compound 270] | 0.01 to 0.1 µM
22 | COC(=O)N1CCc2ccc3c(nc([C@H]4CCC[C@H](C(=O)O)C4)n3Cc3cccc(OC)n3)c2C1 [Compound 277] | 0.01 to 0.1 µM
23 | C[C@H](Cc1ccccc1)n1c2ccc3c(c2nc1[C@H]1CC[C@H](C(=O)O)CC1)CN(C(=O)C1CC1)CC3 [Compound 244] | 0.01 to 0.1 µM

Row | Compound | IC50
24 | COC(=O)N1CCc2ccc3c(nc(N4CCC(C(=O)CO)CC4)n3[C@H](C)Cc3ccccc3)c2C1 [Compound 313] | 0.1 to 1 µM
25 | COC(=O)N1CCc2ccc3c(nc([C@H]4CC[C@H](C(=O)O)CC4)n3[C@@H](C)Cc3ccccc3C)c2C1 [Compound 7] | 0.001 to 0.01 µM
26 | COC(=O)N1CCc2ccc3c(nc([C@H]4CC[C@H](C(=O)O)CC4)n3[C@@H](C)Cc3ccc4c(c3)CCO4)c2C1 [Compound 65] | 0.001 to 0.01 µM
27 | COC(=O)N1CCc2ccc3c(nc(C4CCNCC4)n3CCc3ccccc3)c2C1 [Compound 345] | 0.1 to 1 µM
28 | COC(=O)N1CCc2ccc3c(nc([C@H]4CC[C@H](C(=O)O)CC4)n3[C@H](C)CC3CCOCC3)c2C1 [Compound 265] | 0.01 to 0.1 µM
29 | COC(=O)N1CCc2ccc3c(nc(N4CCNCC4)n3[C@@H](C)Cc3ccccc3)c2C1 [Compound 198] | 0.01 to 0.1 µM
30 | COC(=O)N1CCc2ccc3c(nc([C@H]4CC[C@@H](C(=O)O)C4)n3[C@H](C)Cc3ccccc3C)c2C1 [Compound 59] | 0.001 to 0.01 µM
31 | COC(=O)N1CCc2c(Cl)cc3c(nc([C@H]4CC[C@H](C(=O)O)CC4)n3CCc3ccccc3)c2C1 [Compound 154] | 0.001 to 0.01 µM
32 | COC(=O)N1CCc2ccc3c(nc([C@H]4CC[C@H](C(=O)O)CC4)n3Cc3ccc(OC(F)F)cc3)c2C1 [Compound 171] | 0.001 to 0.01 µM
33 | COC(=O)N1CCc2ccc3c(nc(C4CCCCC4)n3[C@H](C)Cc3cccc(C(=O)O)c3)c2C1 [Compound 294] | 0.1 to 1 µM
34 | (3S)-4-[2-cyclohexyl-8-(methoxycarbonyl)-3H,6H,7H,8H,9H-imidazo[4,5-h]isoquinolin-3-yl]-3-(3-fluoro-5-methoxyphenyl)butanoic acid [Compound 10] | 0.001 to 0.01 µM
35 | COC(=O)N1CCc2ccc3c(nc([C@H]4CC[C@H](C(=O)O)CC4)n3[C@H](C)Cc3ccc(F)c(OC)c3)c2C1 [Compound 286] | 0.01 to 0.1 µM
36 | COC(=O)N1CCc2ccc3c(nc([C@@H]4CCC[C@@H](C(=O)O)C4)n3[C@@H](C)Cc3ccccc3Cl)c2C1 (single isomer, unassigned) [Compound 20] | 0.001 to 0.01 µM
37 | COC(=O)N1CCc2c(C(=O)O)cc3c(nc(N4CCCCC4)n3C[C@H](C)c3ccccc3)c2C1 [Compound 247] | 0.01 to 0.1 µM
38 | COC(=O)N1CCc2ccc3c(nc([C@H]4CC[C@H](C(=O)O)CC4)n3[C@@H](C)Cc3ccc(C)cc3)c2C1 [Compound 93] | 0.001 to 0.01 µM
39 | COC(=O)N1CCc2ccc3c(nc([C@H]4CC[C@H](S(N)(=O)=O)CC4)n3[C@@H](C)Cc3ccccc3)c2C1 [Compound 97] | 0.001 to 0.01 µM
40 | COC(=O)N1CCc2cc(CC#N)c3c(nc([C@H]4CC[C@H](C(=O)O)CC4)n3CCc3ccccc3)c2C1 [Compound 118] | 0.001 to 0.01 µM
41 | COC(=O)N1CCc2ccc3c(nc([C@H]4CC[C@H](C(=O)O)CC4)n3[C@@H](C)Cc3ccccn3)c2C1 [Compound 141] | 0.001 to 0.01 µM
42 | COC(=O)N1CCc2ccc3c(nc(C4CCCCC4)n3CC[C@H]3CCC[C@@H](C(=O)O)C3)c2C1 [Compound 177] | 0.01 to 0.1 µM
43 | COC(=O)N1CCc2ccc3c(nc(C4CCCCC4)n3C[C@@](C)(C(=O)O)c3ccccc3)c2C1 [Compound 150] | 0.001 to 0.01 µM
44 | COC(=O)N1CCc2ccc3c(nc([C@@H]4CCC[C@@H](C(=O)O)C4)n3[C@H](C)Cc3ccc(F)c(F)c3)c2C1 [Compound 217] | 0.01 to 0.1 µM
45 | COC(=O)N1CCc2ccc3c(nc([C@H]4CC[C@H](C(=O)O)CC4)n3[C@@H](C)Cn3ncc4ccccc43)c2C1 [Compound 88] | 0.001 to 0.01 µM
46 | COC(=O)N1CCc2ccc3c(nc([C@H]4CC[C@@H](C(=O)O)CC4)n3CC(NC(C)=O)c3ccccc3)c2C1 (stereo partly shown) [Compound 248] | 0.01 to 0.1 µM

Source: US20250188079A1, “INHIBITING CYCLIC AMP-RESPONSIVE ELEMENT-BINDING PROTEIN (CREB)” (Forma Therapeutics, Inc., priority 2019, published 2025)
